{"source": "patent US20150174034A1", "about": "“TYROSINASE INHIBITORS” (Avon Products, Inc., priority 2013, published 2015)", "key": {"[1]": {"system": "B16 mouse melanoma cells", "experiment": "Inhibition of melanin production, B16 melanoma cell assay", "format": "cell-based", "settings": "4 days, alpha MSH, normalized to cell viability", "procedure": "The effects of various test compounds on melanin levels were determined by performing assays using B16 melanoma cells. These cells are known to constitutively produce melanin and are a commonly utilized and accepted model system for monitoring the inhibition of melanin synthesis. The B16 mouse melanoma cells were seeded (ATCC, cat. #: CRL-6475) into 96-well tissue culture-treated plates (BD Falcon) and treated with test actives or controls in phenol red free DMEM (Mediatech; cat. #: 17-205-CV) with 2 nanogram/ml of alpha MSH (Fluka; cat #:63605). The cells were examined for their ability to modulate pigment formation. […] Tests were performed in 6 replicates each. Following the treatment period (4 days), the level of pigment produced or melanin synthesized was quantified by reading the absorbance at 540 nm using a standard microplate reader (Tecan Group Ltd.).\nAfter quantifying the amount of melanin, cell viability was determined using the MTT conversion method. The MTT conversion method measures the reduction of the MTT dye from a yellow colored, water-soluble, tetrazolium salt to a bluish-purple colored insoluble formazan precipitate by NAD(P)H-dependent microsomal dehydrogenase enzymes, which only function in viable cells. The intensity of the blue color is indicative of cell viability. After quantifying the amount of melanin pigment produced, the cells were exposed to MTT dye solution (1 mg/ml) for two to three hours. Formazan material was solubilized with reagent alcohol (95% ethanol: 5% isopropanol) and shaken on an orbital shaker for 15-30 minutes. MTT dye uptake and conversion by viable cells were determined by measuring the extracted formazan at 570 nm using a microplate reader. Total pigmentation was calculated, normalized to cell viability values and expressed as the average percent change in melanin activity relative to control of the six experiments performed.\nThe assay data in Table 2 uses the following scale: 0: <10% decrease; +: between […] decrease; ++: 31-50% decrease; +++: between 51-70% decrease; ++++: >71% decrease; C=cytotoxic"}, "[2]": {"system": "Human Epidermal Melanocytes, neonatal, darkly pigmented donor (HEMn-DP)", "experiment": "Human primary melanocyte pigmentation assay (HEMn-DP)", "format": "cell-based", "settings": "5 days, normalized to cell viability", "procedure": "The effects of various test compounds on melanin productions were determined by performing assays using Human Epidermal Melanocytes, neonatal, darkly pigmented donor (HEMn-DP). The HEMn-DP cells were seeded (Invitrogen; cat. #: C-202-5C) into 6-well tissue culture-treated plates (BD Falcon) and treated with test actives or controls in Medium 254 (Invitrogen; cat. #: M-254-500) supplemented with 1% HMSG (Invitrogen; cat. #: S-002-5) and 1% P/S. The cells were examined for their ability to modulate pigment formation. […] Tests were performed in triplicates each. Following the treatment period (5 days), supernatants were aspirated. The melanin was extracted with 0.5 ml of 2N NaOH for 30 minutes at 80° C. The level of melanin synthesized within the cells was quantified by reading the absorbance at 405 nm using a standard microplate reader (Tecan Group Ltd.).\nThe cell viability was determined using the MTT conversion method. The MTT conversion method measures the reduction of the MTT dye from a yellow colored, water-soluble, tetrazolium salt to a bluish-purple colored insoluble formazan precipitate by NAD(P)H-dependent microsomal dehydrogenase enzymes, which only function in viable cells. The intensity of the blue color is indicative of cell viability. […] The cells were then exposed to MTT dye solution (1 mg/ml) for two to three hours. Formazan material was solubilized with reagent alcohol (95% ethanol: 5% isopropanol) and shaken on an orbital shaker for 15-30 minutes. MTT dye uptake and conversion by viable cells were determined by measuring the extracted formazan at 570 nm using a microplate reader. Total pigmentation was calculated and normalized to cell viability values. The average percent change in melanin relative to control of the triplicates from the Human Primary Melanocyte Pigmentation Assay (HEMn-DP Pigmentation) is reported in the Table 3 in accordance with the scale: 0: <10% decrease in pigmentation level; +: between 11-30% decrease; ++: between 31-50% decrease; +++: between 51-70% decrease; ++++: >71% decrease; C=cytotoxic."}, "[3]": {"system": "MELANODERM (MEL-300-B) human skin model", "experiment": "3D skin equivalent tissue pigmentation assay (MELANODERM)", "format": "cell-based", "settings": "topical, tissues collected Day 11", "procedure": "The effect of the tyrosinase inhibitors on melanin levels was investigated using a MELANODERM™ (MEL-300-B, MatTek Corp., Ashland, Mass.) human skin model. MELANODERM™ is a viable reconstituted three-dimensional human skin equivalent containing melanocytes derived from African-American donors. Tissues were maintained in culture medium EPI-100-NMM-113 at 37° C. as recommended by the manufacturer.\n10 μl of the solution was applied topically to the MELANODERM™ tissue while culture medium was added on days 1, 2, 4, 7, and 9. Control tissues were treated with the 10 μl of corresponding vehicle only. On Day 11, tissues were collected and homogenized in a buffer containing 1% SDS, 50 mM EDTA, and 10 mM Tris, pH 6.8. To each homogenate, protease K (5 mg/ml) was added and incubated overnight at 45° C. Additional protease K was added and incubated for 4 hours at 45° C., followed by the addition of 0.5M sodium carbonate and 30% H2O2 and incubation at 80° C. for 30 minutes. The samples were cooled down to room temperature, and extracted with chloroform/methanol (2:1). After centrifugation at 10,000 g for 10 minutes, absorbance of the top phase was measured at 450 nm. Percent change in melanin levels in treated tissue was calculated relative to control. The average percent change in melanin relative to control of the three tissues is reported in the Table 4 in accordance with the scale: 0: <7% decrease in pigmentation level; +: between 8-14% decrease; ++: between 15-20% decrease; +++: between 21-30% decrease; ++++: >31% decrease; C=cytotoxic"}, "[4]": {"system": "Mushroom tyrosinase", "experiment": "Mushroom tyrosinase assay", "format": "biochemical", "settings": "L-Tyrosine substrate, 25° C., 30 min", "procedure": "Mushroom tyrosinase and L-Tyrosine were obtained from Sigma-Aldrich, Inc. (St. Louis, Mo.). The enzyme activity was measured in buffer containing 100 mM phosphate buffer pH 6.8, 5% absolute ethanol, 2 micrograms/milliliter mushroom tyrosinase, and 0.2 mg/ml L-Tyrosine. The reaction (conversion of L-Tyrosine to DOPAchrome) was conducted in triplicates at 25° C. for 30 min, and absorbance was then measured at 492 nm. Kojic Acid was used as a positive control inhibitor in these assays. Percent change in tyrosinase activity relative to vehicle control was calculated."}}}
{"smiles": "C/C(=N/NC(=S)NCC1CCCO1)c1ccc2c(c1)OCO2", "note": "(centres unmarked) [AV1221]", "values": [{"measurement": "B16 Assay Pigmentation Decrease (percent change in melanin compared to DMSO vehicle control)", "setting": "[1]; concentration 0.0001%", "value": "++ (31-50% decrease)"}, {"measurement": "B16 Assay Pigmentation Decrease (percent change in melanin compared to DMSO vehicle control)", "setting": "[1]; concentration 0.001%", "value": "++++ (>71% decrease)"}, {"measurement": "Human primary melanocyte pigmentation assay (change in melanin compared to DMSO vehicle control)", "setting": "[2]; concentration 0.0001%", "value": "+ (between 11-30% decrease)"}, {"measurement": "Human primary melanocyte pigmentation assay (change in melanin compared to DMSO vehicle control)", "setting": "[2]; concentration 0.001%", "value": "++++ (>71% decrease)"}, {"measurement": "3D Tissue Pigmentation Assay (change in melanin compared to vehicle control)", "setting": "[3]; concentration 0.05%", "value": "+++ (between 21-30% decrease)"}, {"measurement": "3D Tissue Pigmentation Assay (change in melanin compared to vehicle control)", "setting": "[3]; concentration 0.1%", "value": "++ (between 15-20% decrease)"}]}
{"smiles": "Cc1ccc(/C=N/NC(=S)NCC2CCCO2)s1", "note": "(centres unmarked) [AV3793]", "values": [{"measurement": "B16 Assay Pigmentation Decrease (percent change in melanin compared to DMSO vehicle control)", "setting": "[1]; concentration 0.0001%", "value": "+ (between 20-30% decrease)"}, {"measurement": "B16 Assay Pigmentation Decrease (percent change in melanin compared to DMSO vehicle control)", "setting": "[1]; concentration 0.001%", "value": "+++ (between 51-70% decrease)"}, {"measurement": "Human primary melanocyte pigmentation assay (change in melanin compared to DMSO vehicle control)", "setting": "[2]; concentration 0.0001%", "value": "0 (<10% decrease in pigmentation level)"}, {"measurement": "Human primary melanocyte pigmentation assay (change in melanin compared to DMSO vehicle control)", "setting": "[2]; concentration 0.001%", "value": "+++ (between 51-70% decrease)"}, {"measurement": "3D Tissue Pigmentation Assay (change in melanin compared to vehicle control)", "setting": "[3]; concentration 0.05%", "value": "++ (between 15-20% decrease)"}, {"measurement": "3D Tissue Pigmentation Assay (change in melanin compared to vehicle control)", "setting": "[3]; concentration 0.1%", "value": "+++ (between 21-30% decrease)"}]}
{"smiles": "C/C(=N/NC(=S)NC(C)C)c1ccc2c(c1)OCO2", "note": "[AV2043]", "values": [{"measurement": "B16 Assay Pigmentation Decrease (percent change in melanin compared to DMSO vehicle control)", "setting": "[1]; concentration 0.0001%", "value": "++ (31-50% decrease)"}, {"measurement": "Human primary melanocyte pigmentation assay (change in melanin compared to DMSO vehicle control)", "setting": "[2]; concentration 0.0001%", "value": "+ (between 11-30% decrease)"}, {"measurement": "Human primary melanocyte pigmentation assay (change in melanin compared to DMSO vehicle control)", "setting": "[2]; concentration 0.001%", "value": "++ (between 31-50% decrease)"}, {"measurement": "3D Tissue Pigmentation Assay (change in melanin compared to vehicle control)", "setting": "[3]; concentration 0.05%", "value": "+++ (between 21-30% decrease)"}, {"measurement": "3D Tissue Pigmentation Assay (change in melanin compared to vehicle control)", "setting": "[3]; concentration 0.1%", "value": "+++ (between 21-30% decrease)"}]}
{"smiles": "Oc1ccc(C=NNC(=S)NCC2CCCO2)c(O)c1", "note": "(centres unmarked) [AV6989]", "values": [{"measurement": "Tyrosinase Inhibition (percent change in tyrosinase activity compared to DMSO vehicle control)", "setting": "[4]; concentration 0.001%", "value": "−36", "unit": "%"}, {"measurement": "Tyrosinase Inhibition (percent change in tyrosinase activity compared to DMSO vehicle control)", "setting": "[4]; concentration 0.01%", "value": "−75", "unit": "%"}, {"measurement": "B16 Assay Pigmentation Decrease (percent change in melanin compared to DMSO vehicle control)", "setting": "[1]; concentration 0.0001%", "value": "−79", "unit": "%"}]}
